Laboratory results as given in patent US5696112A, “Fused heterocyclic azepines as vasopressin antagonists” (American Cyanamid Company, priority 1995, dated 1997).

Key:
[1] = biological target: T1, Human V2 Vasopressin Receptor (Homo sapiens, UniProt P30518); experiment: Binding to Membranes of Mouse Fibroblast Cell Line (LV-2) Transfected with the cDNA Expressing the Human V2 Receptor; details: LV-2 cell membranes
T1 construct: expressed in transfected cells; host or cells: mouse fibroblast cell line LV-2
Description: Binding to Membranes Of Mouse Fibroblast Cell Line (LV-2) Transfected with the cDNA expressing the Human V2 Vasopressin Receptor
Flasks of 175 ml capacity, containing attached cells grown to confluence are cleared of culture medium by aspiration. The flasks containing the attached cells are rinsed with 2×5 ml of phosphate buffered saline (PBS) and the liquid aspirated off each time. Finally, 5 ml of an enzyme free dissociation Hank's based solution (Specialty Media, Inc., Lafayette, N.J.) is added and the flasks are left undisturbed for 2 min. The content of all flasks is poured into a centrifuge tube and the cells pelleted at 300×g for 15 min. The Hank's based solution is aspirated off and the cells homo-genized with a polytron at setting #6 for 10 sec in 10.0 mM Tris.HCl buffer, pH 7.4 containing 0.25M sucrose and 1.0 mM EDTA. The homogenate is centrifuged at 1500×g for 10 min to remove ghost membranes. The supernatant fluid is centrifuged at 100,000×g for 60 min to pellet the receptor protein. Upon completion, the pellet is resuspended in a small volume of 50.0 mM Tris.HCl buffer, pH 7.4. The protein content is determined by the Lowry method and the receptor membranes are suspended in 50.0 mM Tris.HCl buffer containing 0.1 mM phenylmethylsulfonylfluoride (PMSF) and 0.2% bovine serum albumin (BSA) to give 2.5 mg receptor protein per ml of suspension.
For binding experiments, the following is added in μl volume to wells of a 96 well format of a microtiter plate: 100.0 μl of 100.0 mM Tris.HCl buffer containing 0.2% heat inactivated BSA, 10.0 mM MgCl2 and a mixture of protease inhibitors: leupeptin, 1.0 mg %; aprotinin, 1.0 mg %; 1,10-phenanthroline, 2.0 mg %; trypsin inhibitor, 10.0 mg % and 0.1 mM PMSF, 20.0 μl of [^3 H]Arginine^8, vasopressin (S.A. 75.0 Ci/mmole) at 0.8 nM and the reaction initiated by the addition of 80.0 μl of tissue membranes (200.0 μg tissue protein). The plates are left undisturbed on the bench top for 120 min to reach equilbrium. Non-specific binding is assessed in the presence of 1.0 μM of unlabeled ligand, added in 20 μl volume. For test compounds, these are solubilized in 50% dimethylsulfoxide (DMSO) and added in 20.0 μl volume to a final incubation volume of 200 μl . Upon completion of binding, the content of each well is filtered off, using a Brandel® cell Harvester (Gaithersburg, Md.). The radioactivity trapped on the filter disk by the ligand-receptor complex is assessed by liquid scintillation counting in a Packard LS Counter, with an efficiency of 65% for tritium. The data are analyzed for IC50 values by the LUNDON-2 program for competition (LUNDON SOFTWARE, OH).

[2] = biological target: T2, Vasopressin V1 Receptor Subtype in Human Platelet Membranes (Homo sapiens, UniProt P37288); experiment: Binding to V1 Receptor Subtype in Human Platelet membranes
T2 construct: tissue Hudson Valley Blood Services, Westchester Medical Center, Valhalla, N.Y; host or cells: human platelet membranes from frozen platelet rich plasma
Description: Radioligand Binding Experiments with Human Platelet Membranes
Platelet Source: Hudson Valley Blood Services, Westchester Medical Center, Valhalla, N.Y.
Platelet Membrane Preparation:
Frozen platelet rich plasma (PRP), received from the Hudson Valley Blood Services are thawed to room temperature. The tubes containing the PRP are centrifuged at 16,000×g for 10 min. at 4° C. and the supernatant fluid discarded. The platelets resuspended in an equal volume of 50.0 mMTris.HCl, pH 7.5 containing 120 mM NaCl and 20.0 mM EDTA. The suspension is recentrifuged at 16,000×g for 10 min. This washing step is repeated one more time. The wash is discarded and the lysed pellets homogenized in low ionic strength buffer of Tris.HCl, 5.0 mM, pH 7.5 containing 5.0 mM EDTA. The homogenate is centrifuged at 39,000×g for 10 min. The resulting pellet is resuspended in Tris.HCl buffer, 70.0 mM, pH 7.5 and recentrifuged at 39,000×g for 10 min. The final pellet is resuspended in 50.0 mM Tris.HCl buffer pH 7.4 containing 120 mM NaCl and 5.0 mM HCl to give 1.0-2.0 mg protein per ml of suspension.
Binding to Vasopressin V1 Receptor Subtype in Human Platelet Membranes:
In wells of a 96 well format microtiter plate, add 100 μl of 50.0 mM Tris.HCl buffer containing 0.2% BSA and a mixture of protease inhibitors (aprotinin, leupeptin etc.). Then add 20 μl of [^3 H]Ligand: (Manning or Arg^8 Vasopressin), to give final concentrations ranging from 0.01 to 10.0 nM. Initiate the binding by adding 80.0 μl of platelet suspension (approx. 100 μg protein). Mix all reagents by pipetting the mixture up and down a few times. Non-specific binding is measured in the presence of 1.0 μM of unlabeled ligand (Manning or Arg^8 Vasopressin). Let the mixture stand undisturbed at room temperature for ninety (90) min. Upon this time, rapidly filter off the incubate under vacuum suction over GF/B filters, using a Brandel® Harvester. Determine the radioactivity caught on the filter disks by the addition of liquid scintillant and counting in a liquid scintillator

T1 sequence (P30518 whole entry): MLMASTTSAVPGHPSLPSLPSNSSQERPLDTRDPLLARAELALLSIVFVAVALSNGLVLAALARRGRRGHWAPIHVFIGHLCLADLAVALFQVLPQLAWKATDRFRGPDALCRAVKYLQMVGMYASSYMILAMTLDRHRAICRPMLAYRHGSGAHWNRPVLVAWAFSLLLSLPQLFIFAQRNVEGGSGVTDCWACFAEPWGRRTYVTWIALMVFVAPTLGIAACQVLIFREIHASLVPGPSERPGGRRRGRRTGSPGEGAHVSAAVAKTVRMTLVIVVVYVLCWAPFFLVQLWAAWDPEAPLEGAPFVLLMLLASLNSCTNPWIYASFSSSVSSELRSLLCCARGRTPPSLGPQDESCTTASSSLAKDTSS
T2 sequence (P37288 whole entry): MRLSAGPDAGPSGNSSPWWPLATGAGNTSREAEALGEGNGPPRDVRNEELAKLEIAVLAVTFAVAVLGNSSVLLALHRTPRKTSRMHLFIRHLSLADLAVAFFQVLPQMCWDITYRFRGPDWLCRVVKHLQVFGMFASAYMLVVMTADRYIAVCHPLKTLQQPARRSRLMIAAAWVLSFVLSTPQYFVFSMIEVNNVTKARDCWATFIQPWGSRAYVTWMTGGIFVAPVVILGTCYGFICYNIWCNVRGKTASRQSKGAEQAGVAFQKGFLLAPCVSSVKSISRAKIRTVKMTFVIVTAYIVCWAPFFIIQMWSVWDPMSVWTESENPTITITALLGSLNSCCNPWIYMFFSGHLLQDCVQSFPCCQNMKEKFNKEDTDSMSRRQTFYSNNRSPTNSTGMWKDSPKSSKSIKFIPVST

O=C(Nc1ccc(C(=O)N2CCCCc3sccc32)c(Cl)c1)c1ccc(Cl)cc1Cl [Example 68, N-[4-[(5,6,7,8-Tetrahydro-4H-thieno[3,2-b]azepin-4-yl)carbonyl]-3-chlorophenyl]-2,4-dichlorobenzamide]
IC50 [1]: 0.022 µM | IC50 [2]: 0.68 µM

Cc1ccc(F)cc1C(=O)Nc1ccc(C(=O)N2CCCCc3sccc32)c(Cl)c1 [Example 70, N-[4-[(5,6,7,8-Tetrahydro-4H-thieno[3,2-b]azepin-4-yl)carbonyl]-3-chlorophenyl]-5-fluoro-2-methylbenzamide]
IC50 [1]: 0.0034 µM | IC50 [2]: 0.11 µM

O=C(Nc1ccc(C(=O)N2CCCCc3sc(Cl)cc32)cc1)c1c(Cl)cccc1Cl [Example 95, N-[4-[(2-Chloro-5,6,7,8-tetrahydro-4H-thieno[3,2-b]azepin-4-yl)carbonyl]phenyl]-2,6-dichlorobenzamide]
IC50 [1]: 0.004 µM | IC50 [2]: 0.19 µM

O=C(Nc1ccc(C(=O)N2CCCCc3sccc32)c(Cl)c1)c1ccc(F)cc1Cl [Example 183]
IC50 [1]: 0.0022 µM | IC50 [2]: 0.18 µM
